Source: patent publication EP0580161A1, “Prophylactic and therapeutic treatment of Alzheimer's disease” (THE McLEAN HOSPITAL CORPORATION, priority 1992, dated 1994)
Where two headings read alike, the source gives them in different places. Residues, ends and D or L forms follow the SMILES beside them. *: point of attachment. Cbz = O=C(OCc1ccccc1)*

Assays:
mouse = settings: cited from earlier work
m-calpain = target: T1, m-calpain (Rattus norvegicus, UniProt Q07009); assay: calpain inhibitory activity; format: biochemical; settings: m-calpain extracted and purified from rat brain; read-out: calpain inhibitory activity IC₅₀
T1 construct: m-calpain which was extracted and purified from rat brain; from tissue; host or cells: rat brain
T1 sequence (Q07009 20-700 limits assumed): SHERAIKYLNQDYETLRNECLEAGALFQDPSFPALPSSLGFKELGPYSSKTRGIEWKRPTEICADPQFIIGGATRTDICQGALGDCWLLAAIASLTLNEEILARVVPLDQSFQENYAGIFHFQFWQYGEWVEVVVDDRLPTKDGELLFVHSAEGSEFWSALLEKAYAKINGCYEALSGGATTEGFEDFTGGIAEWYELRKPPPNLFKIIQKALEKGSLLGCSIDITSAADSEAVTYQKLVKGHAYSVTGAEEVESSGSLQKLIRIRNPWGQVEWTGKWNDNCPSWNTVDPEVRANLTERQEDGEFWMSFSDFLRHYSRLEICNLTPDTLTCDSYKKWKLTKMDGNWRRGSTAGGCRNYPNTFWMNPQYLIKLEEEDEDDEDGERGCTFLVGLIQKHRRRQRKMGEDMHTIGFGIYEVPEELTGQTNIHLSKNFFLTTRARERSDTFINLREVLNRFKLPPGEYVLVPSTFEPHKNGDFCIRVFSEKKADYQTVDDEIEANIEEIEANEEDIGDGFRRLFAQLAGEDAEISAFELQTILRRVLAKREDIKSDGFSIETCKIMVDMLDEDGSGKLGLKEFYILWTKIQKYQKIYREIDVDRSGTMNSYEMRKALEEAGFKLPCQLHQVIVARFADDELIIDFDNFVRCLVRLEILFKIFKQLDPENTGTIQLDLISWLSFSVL
T1 sequence (Q64537 1-270 partner): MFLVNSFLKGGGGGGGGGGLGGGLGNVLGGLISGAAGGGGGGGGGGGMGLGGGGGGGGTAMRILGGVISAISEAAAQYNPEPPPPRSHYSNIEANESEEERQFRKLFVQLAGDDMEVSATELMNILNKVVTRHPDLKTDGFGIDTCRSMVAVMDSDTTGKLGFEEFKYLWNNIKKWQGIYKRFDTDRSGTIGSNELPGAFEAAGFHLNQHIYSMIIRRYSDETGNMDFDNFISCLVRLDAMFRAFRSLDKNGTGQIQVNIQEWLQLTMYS
Method: According to the method previously described (Journal of Biological Chemistry, 259, 12489 (1984)), inhibitory activity of several compounds were determined with m-calpain which was extracted and purified from rat brain by means of the method described in Journal of Biological Chemistry, 259, 3210 (1984). The results are summarized in the following table in which the data for NCO-700 (Arzneimittel Forschung/Drug Research 36, 190 (1986)) and for MDL 28170 (Biochemical and Biophysical Research Communications, 157, 1117 (1988)) are those disclosed in the references.

calpain = settings: cited from earlier work
calpain I = target: T2, calpain I (Homo sapiens, UniProt P07384); assay: conversion of 80KDa calpain I to 76KDa form in erythrocyte incubated with calcium; format: cell-based; settings: human erythrocyte incubated in the presence of calcium
T2 construct: endogenous in cells; host or cells: human erythrocyte
T2 sequence (P07384 1-714): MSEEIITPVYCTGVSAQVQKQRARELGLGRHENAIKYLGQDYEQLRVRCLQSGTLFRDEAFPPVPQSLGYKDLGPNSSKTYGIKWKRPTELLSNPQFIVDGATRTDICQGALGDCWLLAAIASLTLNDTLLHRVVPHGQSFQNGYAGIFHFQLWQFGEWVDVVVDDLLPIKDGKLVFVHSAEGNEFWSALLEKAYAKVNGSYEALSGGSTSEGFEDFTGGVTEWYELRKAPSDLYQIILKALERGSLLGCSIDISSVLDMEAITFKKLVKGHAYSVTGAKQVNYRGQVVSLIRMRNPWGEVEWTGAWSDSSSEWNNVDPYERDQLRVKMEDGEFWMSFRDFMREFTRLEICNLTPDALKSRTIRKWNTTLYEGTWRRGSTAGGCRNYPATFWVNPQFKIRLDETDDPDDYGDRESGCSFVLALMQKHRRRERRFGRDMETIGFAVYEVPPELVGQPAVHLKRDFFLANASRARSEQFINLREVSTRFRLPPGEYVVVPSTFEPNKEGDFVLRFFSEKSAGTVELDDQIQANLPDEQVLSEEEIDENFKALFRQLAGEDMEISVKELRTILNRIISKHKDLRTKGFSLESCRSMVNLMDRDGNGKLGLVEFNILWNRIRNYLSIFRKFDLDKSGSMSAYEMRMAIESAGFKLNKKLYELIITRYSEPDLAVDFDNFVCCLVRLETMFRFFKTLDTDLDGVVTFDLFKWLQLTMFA
T2 sequence (P04632 1-268 partner): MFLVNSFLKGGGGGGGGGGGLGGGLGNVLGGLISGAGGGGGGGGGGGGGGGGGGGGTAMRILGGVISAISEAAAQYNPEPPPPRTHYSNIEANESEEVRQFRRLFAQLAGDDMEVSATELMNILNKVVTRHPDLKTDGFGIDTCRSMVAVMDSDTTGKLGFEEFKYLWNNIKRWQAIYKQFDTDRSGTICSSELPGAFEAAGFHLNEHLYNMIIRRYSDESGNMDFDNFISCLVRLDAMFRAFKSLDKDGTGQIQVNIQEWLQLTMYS
From the text: Calpain I is partially purified from post-mortem brain. Fraction containing crude calpain I is subjected to electrophoresis, and reacted with monoclonal antibody to human calpain I (Biochemical Journal, 246, 481 (1987); Biochemical Journal, 261, 1039 (1989)) to show three bands. Molecular weights of these bands are 80KDa, 78KDa, and 76KDa, respectively, and are identical to those in erythrocyte (Biochemical Journal, 246, 482 (1987); Biochemical Journal, 261, 1039 (1989)). When human erythrocyte is incubated in the presence of calcium, the 80KDa band disappears and the 76KDa band appears. This reaction is inhibited by leupeptine which is a calpain inhibitor. Furthermore, there exists a good correlation between the amount of the 76KDa protein and the enzyme activity. […] This transformation from 80KDa to 76KDa in the presence of calcium can also be observed with slice specimens of post-mortem human brain.

| SMILES | LD₅₀ (mouse; po) | IC50 (m-calpain) | other results |
| --- | --- | --- | --- |
| CC(C)CCNC(=O)[C@H](CC(C)C)NC(=O)[C@H]1O[C@@H]1C(=O)O [E-64-c] | > 2000 mg/kg |  |  |
| CCOC(=O)[C@H]1O[C@@H]1C(=O)N[C@@H](CC(C)C)C(=O)NCCC(C)C [E-64-d] | > 2000 mg/kg |  |  |
| CC(C)CC(NC(=O)[C@H]1O[C@@H]1C(=O)O)C(=O)NCCCCNC(=N)N (some centres unmarked) [E-64] | > 2000 mg/kg | 0.96 µM |  |
| CC(C)[C@H](NC(=O)OCc1ccccc1)C(=O)N[C@H](C=O)Cc1ccccc1 [MDL 28170] (Cbz-Val-Phe-aldehyde) |  |  | Ki (calpain; value disclosed in Biochemical and Biophysical Research Communications, 157, 1117 (1988), read-out: calpain inhibitory activity Ki): 0.007 µM |
| CCOC(=O)[C@@H]1O[C@H]1C(=O)NC(CC(C)C)C(=O)N1CCN(Cc2ccc(OC)c(OC)c2OC)CC1.CCOC(=O)[C@@H]1O[C@H]1C(=O)NC(CC(C)C)C(=O)N1CCN(Cc2ccc(OC)c(OC)c2OC)CC1.O=S(=O)(O)O (some centres unmarked) [NCO-700] |  |  | IC50 (calpain; value disclosed in Arzneimittel Forschung/Drug Research 36, 190 (1986), read-out: calpain inhibitory activity IC₅₀): 46 µM; LD₅₀ (mouse; iv): 374 mg/kg |
| CCCCC(C=O)NC(=O)C(CC(C)C)NC(=O)OCc1ccccc1 (centres unmarked) [carpeptine] |  | 0.046 µM |  |
| NC(N)=NCCCCNC(=O)[C@H](Cc1ccccc1)NC(=O)C1OC1C(=O)O (some centres unmarked) [estatine A] |  |  | LD₅₀ (mouse; ip): > 400 mg/kg |
| CC(=O)NC(CC(C)C)C(=O)NC(CC(C)C)C(=O)NC(C=O)CCCNC(=N)N (centres unmarked) [leupeptine] |  | 0.36 µM | disappearance of 80KDa band and appearance of 76KDa band of calpain I (calpain I): inhibited |
